How the values were obtained:
[1] = tested on: rats sensitized to the HDM allergen extract; assay: HDM extract challenge in rats sensitized to the HDM allergen extract (BAL cells and mediators); format: in vivo, BN rats
Text: Control animals received saline vehicle treatment.

permeability (Papp) = format: in vitro ADME; conditions: not told
unsensitized BN rats = assay: HDM extract challenge in unsensitized (naive) BN rats, duration of protection; format: in vivo
[2] = HDM 1, dosed 2 or 4 h before challenge, BAL 48 h
[3] = HDM 10, single i.t. aerosol dose 2 h before (15 μg/kg compound 1, 46 μg/kg compound 2), BAL 48 h
[4] = stronger challenge HDM 10, 15 μg/kg i.t. aerosol 2 h prior
[5] = HDM-naive rats, 15 μg/kg i.t. aerosol 2 h prior to HDM 10, BAL 48 h
[6] = single i.t. dose (15 μg/kg compound 1, 46 μg/kg compound 2), BAL 48 h

Compound: CC(C)[C@H](NC(=O)[C@H](C)NC(=O)[C@@H](NC(=O)c1ccccc1)C(C)(C)C)C(=O)C(=O)NCc1ccccc1 [Compound 1, N-{(S)-1-[(S)-1-((S)-1-benzylaminooxalyl-2-methyl-propylcarbamoyl)-ethylcarbamoyl]-2,2-dimethyl-propyl}-benzamide]
- BAL eosinophil responses ([1]; HDM 1 (1 μg Der p 1), dosed i.t. aerosol 2 or 4 h before challenge, BAL 48 h): suppressed
- BAL neutrophil recruitment [1, 2]: No effect
- CCL-2 in BAL fluid [1, 2]: suppressed
- CCL-20 in BAL fluid [1, 2]: suppressed
- IL-13 in BAL fluid [1, 2]: suppressed
- IL-33 in BAL fluid [1, 2]: suppressed
- TSLP in BAL fluid ([1]; HDM 1, dosed 2 h before challenge, BAL 48 h): suppressed
- TSLP in BAL fluid ([1]; HDM 1, dosed 4 h before challenge, BAL 48 h, 'except' = not suppressed): except for TSLP
- changes in BAL cells after HDM challenge ([1]; HDM 10 (10 μg Der p 1) i.t. aerosol, single i.t. aerosol dose 2 h before (15 μg/kg compound 1, 46 μg/kg compound 2), BAL 48 h): attenuated
- BAL eosinophils after HDM challenge [1, 3]: eosinophil suppression
- BAL monocytes/macrophages after HDM challenge [1, 3]: No effects
- BAL neutrophil responses after HDM challenge [1, 3]: not significant
- IL-6 responses in BAL [1, 4]: unaffected
- IL-13 in BAL [1, 4]: inhibitory effects
- IL-33 in BAL [1, 4]: inhibitory effects
- TSLP in BAL [1, 4]: inhibitory effects
- Papp (permeability (Papp)): 6.2 ×10⁻⁶ cm/s
- neutrophil response (unsensitized BN rats; BAL performed 24 h after HDM extract challenge, dosed 2 h prior): clear inhibition
- BAL monocyte/macrophage numbers (unsensitized BN rats; [5]): suppressed
- BAL neutrophil numbers (unsensitized BN rats; [5]): suppressed
- cellularity of BAL fluid (unsensitized BN rats; [5]): suppressed
- inhibition at 0.015 mg/kg (unsensitized BN rats; Rattus norvegicus, Eosinophil, inhaled or nasal, 48 h, read-out: inhibition of eosinophil response at peak): > 60%
- onset: temporal separation between drug dosing and HDM challenge required to achieve 50% inhibition of the eosinophil response (unsensitized BN rats; estimated, Figure 5D–F, in words): faster in onset
- performance in vivo (maximum inhibition of the eosinophil response, Figure 5A) (unsensitized BN rats; focused library, durability of inhibition studies): performed well
- effects on BAL neutrophils (unsensitized BN rats; intervening pretreatment intervals, BAL 48 h): insignificant
- inhibition of BAL monocytes/macrophages (significance) (unsensitized BN rats; pretreatment 60 min, 15 μg/kg i.t., BAL 48 h): significant
- effects on BAL neutrophils (unsensitized BN rats; short or long pretreatment intervals, BAL 48 h): inhibitory
- effect on BAL monocytes/macrophages (unsensitized BN rats; shorter pretreatment times, BAL 48 h): modest inhibition
- effect on eosinophils with 6–8 h separation of dose and challenge (unsensitized BN rats; [6]): substantial inhibition
- time of administration before challenge giving peak effects on eosinophils (unsensitized BN rats; [6]): 2 h

Source: publication PMC9469500, “Targeting an Initiator Allergen Provides Durable and Expansive Protection against House Dust Mite Allergy” (ACS Pharmacology & Translational Science, 2022)
